Test results: US20230233696A1, “TRIANTENNARY N-ACETYLGALACTOSAMINE MODIFIED HYDROXYL POLYAMIDOAMINE DENDRIMERS AND METHODS OF USE THEREOF” (Ashvattha Therapeutics, Inc., priority 2019, published 2023)

Experiments:
[1] = system: NASH mice; assay: in vivo efficacy in STAM mouse model of non-alcoholic steatohepatitis; design: species or system C57BL/6 mice
Method: Pathogen-free 14 day-pregnant C57BL/6 mice were obtained from Japan SLC, Inc.(Japan); NASH was established in male mice by a single subcutaneous injection of 200 μg streptozotocin (STZ, Sigma, USA) 2 days after birth and feeding with a high fat diet (CLEA Japan Inc., Japan) ad libitum after 4 weeks of age (day 28 ± 2). NASH mice were randomized into 8 groups of 8 mice and 2 groups of 4 mice at 6 weeks of age (day 42 ± 2) the day before the start of treatment based on their body weight. Littermate control mice without STZ priming (n=8) were fed with normal diet ad libitum and set up for control purpose (see below for details on grouping). […] Samples would not be collected from euthanized animals. Individual body weight was measured daily during the treatment period. […] Four NASH mice were intraperitoneally administered vehicle supplemented with D-Cy5 at a dose of 50 mg/kg single shot at 6 weeks of age; • Group 11 (D-Cy5-9 wks): Four NASH mice were intraperitoneally administered vehicle supplemented with D-Cy5 at a dose of 50 mg/kg single shot at 9 weeks of age. Mice in group 10 and 11 were sacrificed at 6 and 9 weeks of age 48 hours after the administration. Mice in group 1 - 9 were sacrificed at 9 weeks of age for the following assay, group 10 and 11 were sacrificed at 6 and 9 weeks of age for the following assays. Individual liver weight were measured and liver-to-body weight ratio were calculated. Non-fasting serum ALT levels were quantified by FUJI DRI CHEM (Fujifilm, Japan). Liver triglyceride levels were quantified by Triglyceride E-test kit (FUJIFUILM Wako Pure Chemical Corporation, Japan). HE staining and estimation of NAFLD Activity score was carried out using routine methods. Sirius-red staining and estimation of the percentage of fibrosis area was also calculated. After completion of the in-life portion of the study, the following samples were collected for further analyses or shipping. […] Dissect the animal and collect the tissue samples (right and left kidneys, liver) in sequential order. Sample thickness was less than approximately 5 mm to ensure proper fixation, with a flat surface across the area of interest. Put the samples into 4% NBF for fixation immediately. Fix the samples in 4% NBF overnight at room temperature.

[2] = target: T1, human angiotensin II AT1 receptor (Homo sapiens, UniProt P30556); assay: human angiotensin II AT1 receptor (antagonist radioligand) binding assay; conditions: [125I][Sar1-Ile8] angiotensin-II radioligand, cell membrane homogenates
T1 sequence (P30556 1-359): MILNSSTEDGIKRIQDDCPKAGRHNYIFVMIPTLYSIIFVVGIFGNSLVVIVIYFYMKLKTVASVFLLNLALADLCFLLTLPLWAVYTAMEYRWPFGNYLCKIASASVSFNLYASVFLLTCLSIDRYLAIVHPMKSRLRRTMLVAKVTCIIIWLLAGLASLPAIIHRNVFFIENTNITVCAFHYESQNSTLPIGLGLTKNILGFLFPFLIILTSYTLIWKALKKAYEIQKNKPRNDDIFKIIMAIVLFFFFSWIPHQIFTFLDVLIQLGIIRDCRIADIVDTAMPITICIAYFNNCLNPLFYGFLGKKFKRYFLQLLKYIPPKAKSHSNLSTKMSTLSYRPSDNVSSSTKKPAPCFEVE
Method: Cell membrane homogenates (8 µg protein) are incubated for 120 min at 37° C. with 0.05 nM [125I][Sar1-Ile8] angiotensin-II in the absence or presence of the test compounds in a buffer containing 50 mM Tris-HCl (pH 7.4), 5 mM MgCl2, 1 mM EDTA and 0.1% BSA. Nonspecific binding is determined in the presence of 10 µM angiotensin II. Following incubation, the samples solution are filtered rapidly under vacuum through glass fiber filters (GF/B, Packard) presoaked with 0.3% PEI and rinsed several times with ice-cold 50 mM Tris-HCl using a 96-sample cell harvester (Unifilter, Packard). The filters are dried then counted for radioactivity in a scintillation counter (Topcount, Packard) using a scintillation cocktail (Microscint 0, Packard).
The results are expressed as a percent inhibition of the control radioligand specific binding. Saralasin is used as the standard reference compound, which is tested in each experiment at several concentrations to obtain a competition curve from which its IC50 is calculated.

[3] = in vitro drug release under plasma (pH7.4, PBS) and intracellular conditions (pH5.5, esterase); type: in vitro ADME; conditions: intracellular conditions (pH5.5, esterase), 18 days
Method: The drug release profile of both the conjugates was evaluated under plasma (pH7.4, PBS) and intracellular conditions (pH5.5, esterase).

[4] = water solubility of dendrimer conjugates
[5] = target: CSF1R (Homo sapiens, UniProt P07333); assay: binding affinity towards CSF1R
Chain of CSF1R (P07333 20-972, species assumed): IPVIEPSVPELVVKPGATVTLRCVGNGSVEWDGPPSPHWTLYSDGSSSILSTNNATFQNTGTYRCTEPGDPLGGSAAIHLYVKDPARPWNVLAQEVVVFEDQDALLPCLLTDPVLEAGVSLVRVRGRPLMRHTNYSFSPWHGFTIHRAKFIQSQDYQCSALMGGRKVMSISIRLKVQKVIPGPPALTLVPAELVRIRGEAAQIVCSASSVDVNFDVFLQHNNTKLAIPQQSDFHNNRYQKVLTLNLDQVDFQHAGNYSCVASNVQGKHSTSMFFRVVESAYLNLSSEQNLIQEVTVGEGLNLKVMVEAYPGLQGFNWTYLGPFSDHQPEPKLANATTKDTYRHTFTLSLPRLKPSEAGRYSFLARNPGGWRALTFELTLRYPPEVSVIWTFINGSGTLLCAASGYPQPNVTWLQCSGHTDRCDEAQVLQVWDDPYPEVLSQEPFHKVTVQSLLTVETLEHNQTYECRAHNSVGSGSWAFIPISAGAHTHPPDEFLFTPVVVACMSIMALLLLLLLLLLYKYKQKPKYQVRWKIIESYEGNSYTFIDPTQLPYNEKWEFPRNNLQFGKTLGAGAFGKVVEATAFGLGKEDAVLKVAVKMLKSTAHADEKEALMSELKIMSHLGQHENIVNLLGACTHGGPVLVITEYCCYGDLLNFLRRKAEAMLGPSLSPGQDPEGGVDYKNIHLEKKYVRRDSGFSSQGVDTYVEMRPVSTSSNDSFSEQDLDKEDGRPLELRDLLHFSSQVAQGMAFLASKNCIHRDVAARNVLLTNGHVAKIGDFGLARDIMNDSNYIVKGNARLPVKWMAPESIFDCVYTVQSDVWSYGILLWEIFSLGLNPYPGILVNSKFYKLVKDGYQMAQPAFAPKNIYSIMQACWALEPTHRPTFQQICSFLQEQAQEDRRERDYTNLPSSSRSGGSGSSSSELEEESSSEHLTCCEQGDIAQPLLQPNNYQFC

[6] = NASH mice, significantly compared to free OCA and vehicle control (p < 0.05, n=8)

Molecule: CCCc1nc2c(C)cc(-c3nc4ccccc4n3C)cc2n1Cc1ccc(-c2ccccc2C(=O)O)cc1 [Telmisartan, reference compound]
- liver weight ([1]; NASH mice at nine weeks of age, compared to vehicle-treated NASH mice): reduce liver weight

Molecule: telmisartan-PEG3-amide azide [Telmisartan amide linker]
- Kd [2]: 74.2 nM

Molecule: telmisartan-ester-PEG4 azide [Telmisartan ester linker]
- Kd [2]: 28.5 nM

Molecule: dendrimer-GalNAc (4-5)-telmisartan amide (6-7) [D-Tel]
- drug release [3]: less than 10%
- water solubility [4]: 60 to 70 mg/mL

Molecule: dendrimer-GalNAc(4-5)-Obeticholic acid conjugate (6-7) [D-OCA]
- liver function (biochemical analysis) ([1]; NASH mice): improved liver function
- NAFLD score [1, 6]: decreases
- hepatocyte ballooning [1, 6]: decreases
- liver fibrosis [1, 6]: decreases
- fibrosis score ([1]; high dose D-OCA (315 mg/kg i.p. every other day), compared to free OCA group): improved reduction
- stenosis score ([1]; low dose D-OCA (63 mg/kg i.p. every other day)): significant reduction

Molecule: dendrimer-triantennary GalNAc(4-5)-telmisartan (7-8) [D-TelB]
- drug release [3]: 94%

Molecule: Cc1ccc(NC(=O)c2ccc(CN3CCN(CCOCCOCCOCCN=[N+]=[N-])CC3)c(C(F)(F)F)c2)cc1NC(=O)c1cccc(-c2cnn(C)c2)c1 [CSF1R-E analogue 1]
- Kd [5]: ~13 nM
